Laboratory results from patent publication EP0306455A1, “Cyclodextrin complexes of bis-biguanido hexane compounds” (WARNER-LAMBERT COMPANY, priority 1987, dated 1989).
Where a name gives a salt, the structure may show the parent alone. Read-outs that look alike come from different tables or passages of the source.

How the values were obtained:
[1] = background statement, temperature not given; dihydrochloride; cited from earlier work
[2] = Description: Free chlorhexidine has a water solubility of about 8 mg. per 100 ml. of water at room temperature.
[3] = system: S. anaguis; assay: Anti-microbial activity (MIC and MLC); assay type: cell-based; settings: complex compared with uncomplexed chlorhexidine digluconate
From the text: (§1) A comparison of the anti-microbial activity of chlorhexidine digluconate and beta-cyclodextrin complexed chlorhexidine digluconates were compared against four microorganisms, C.albicans, S. anaguis, S.mutans and A.viscosus.

[4] = system: C.albicans; assay: Anti-microbial activity (MIC and MLC); assay type: cell-based; settings: complex compared with uncomplexed chlorhexidine digluconate
From the text: as §1

[5] = system: A.viscosus; assay: Anti-microbial activity (MIC and MLC); assay type: cell-based; settings: complex compared with uncomplexed chlorhexidine digluconate
From the text: as §1

[6] = system: S.mutans; assay: Anti-microbial activity (MIC and MLC); assay type: cell-based; settings: complex compared with uncomplexed chlorhexidine digluconate
From the text: as §1

Compound	water solubility [1]	water solubility ([2]; water)	water solubility [2]	minimum inhibitory concentration (MIC) [3]	minimum lethal concentration (MLC) [3]	minimum inhibitory concentration (MIC) [4]	minimum lethal concentration (MLC) [4]	minimum inhibitory concentration (MIC) [5]	minimum lethal concentration (MLC) [5]	minimum inhibitory concentration (MIC) [6]	minimum lethal concentration (MLC) [6]
[H]/N=C(\N/C(=N/[H])NCCCCCCNC(=N)NC(=N)Nc1ccc(Cl)cc1)Nc1ccc(Cl)cc1 [chlorhexidine dihydrochloride]	~60 mg per 100 ml of water	60 mg. per 100 ml. of water									
[H]/N=C(\N/C(=N/[H])NCCCCCCNC(=N)NC(=N)Nc1ccc(Cl)cc1)Nc1ccc(Cl)cc1 [chlorhexidine, 1,6-di(p-chlorophenylbiguanides) hexane]		8 mg. per 100 ml. of water	about 8 mg. per 100 ml. of water								
N=C(NCCCCCCNC(=N)NC(=N)Nc1ccc(Cl)cc1)NC(=N)Nc1ccc(Cl)cc1 [chlorhexidine digluconate]				similar	similar	similar	similar	similar	similar	similar	similar
